System: Male C57BL mice with loperamide-induced constipation
Assay: Mouse model of loperamide-induced constipation
Format: in vivo
Conditions: Product 1 30 mg/kg oral gavage, 30 min after loperamide 10 mg/kg, final study day, compared to Loperamide/Vehicle
Protocol: Mouse Model of Loperamide-Induced Constipation
Male C57BL mice (6 to 8 weeks, 25-30 grams) were placed on high-fat diet (45% fat) and allowed to acclimate (singly housed on a 12 hr light/dark cycle) for 6 days. Loperamide was administered by oral gavage at 10 mg/kg (10% DMSO/90% of 20% SBE-β-CD in saline) for 3 consecutive days prior to study initiation.
Daily loperamide dosing was continued throughout the entire study. On the 4, day of loperamide administration, Product 1 (30 mg/kg in 10% DMSO/90% of 20% SBE-β-CD in saline) was administered 30 minutes later by oral gavage. Sequential treatment of loperamide and Product 1 (30 minutes post-loperamide dose) was continued for 2 additional days. On the final day of the study, a fourth group of animals received a single subcutaneous administration of naloxone (1 mg/kg) as a positive control.
On the final study day, the number of fecal pellets and pellet weights for each animal were recorded hourly for the 6 hours following dosing. Fecal pellet output was then recorded every other hour for the period of 6-12 hours post-dosing. Additionally, total fecal pellet count for the period of 12 to 24 hours was measured. Fecal pellets were dried for 24 hours and dry weight recorded.
Prism software (GraphPad Prism, San Diego, CA) was employed for graphs and curve fitting. Data was analyzed using a two-way ANOVA with post-hoc LSD test.

O=C(O)CC1CCC(c2ccc(-c3ccc(Nc4ccc(C(F)(F)F)nc4)cn3)cc2)CC1 (stereo not drawn) [Product 1]
significant increase: wet weights of fecal pellets (FPWW) (1-4 hours after administration, FIG. 2) | dry weights of fecal pellets (FPDW) (1-4 hours after administration, FIG. 3) | fecal pellet output (FPCO) (first 1-4 hours after administration, FIG. 1)

— US12343334B2, “Compositions and methods for treating severe constipation” (Serleva, Inc., priority 2018, dated 2025)
